Like-named read-outs stand apart in the source and are kept apart here. Numbered stars: 1 amine (or outer) side, 2 acyl side, 3 side chain; on linkers, the order of the positions; unused ones are H or OH. Square brackets hold non-standard residues; d marks the D form. Side chains are listed from the residue outwards. Peptide text beside a SMILES is read from it. * marks the point of attachment. C18 diacid = O=C(O)CCCCCCCCCCCCCCCCC(=O)*; C16 diacid = O=C(O)CCCCCCCCCCCCCCC(=O)*; γGlu = O=C(O)[C@H](CCC(=O)[*:2])N[*:1]; Met(O2) = CS(=O)(=O)CC[C@H](N)C(=O)O; αMeD = C[C@](N)(CC(=O)O)C(=O)O; AEEA = NCCOCCOCC(=O)O; Aib = CC(C)(N)C(=O)O
Columns and labels:
[1] = molecular target: T1, human GLP1R (Homo sapiens, UniProt P43220); test: cAMP activity assay at the GLP-1 receptor (GLP1R); type: cell-based
T1 construct: expressed in transfected cells; growth medium holds Blasticidin and Hygromycin
T1 sequence (P43220 24-463): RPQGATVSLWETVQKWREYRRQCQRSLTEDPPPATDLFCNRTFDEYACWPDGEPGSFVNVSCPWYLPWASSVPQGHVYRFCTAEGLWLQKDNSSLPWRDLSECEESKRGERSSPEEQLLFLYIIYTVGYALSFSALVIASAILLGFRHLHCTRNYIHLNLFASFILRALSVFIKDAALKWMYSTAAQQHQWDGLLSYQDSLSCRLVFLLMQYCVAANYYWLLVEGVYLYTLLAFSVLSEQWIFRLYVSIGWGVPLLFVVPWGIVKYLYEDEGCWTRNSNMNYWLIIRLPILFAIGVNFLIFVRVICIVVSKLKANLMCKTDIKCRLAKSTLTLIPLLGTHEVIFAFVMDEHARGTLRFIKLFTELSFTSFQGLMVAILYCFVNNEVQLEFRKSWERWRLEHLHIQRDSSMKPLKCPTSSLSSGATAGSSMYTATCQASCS
Procedure, shortened: (§1)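 Peptides serially diluted from DMSO (10 points) and added to frozen-stock cells bearing human GLP1R (10,000 cells/well) or GCGR (30,000 cells/well), 1 h at RT, dark. EC50 by four-parameter logistic fit of HitHunter cAMPXS luminescence, read following overnight RT incubation.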

[2] = molecular target: T2, human GCGR (Homo sapiens, UniProt P47871); test: cAMP activity assay at the Glucagon receptor (GCGR); type: cell-based; details: for hGCGR/hGLP1R (hTone): ratio of GCGR EC50 to GLP1R EC50
T2 construct: expressed in transfected cells; growth medium holds Blasticidin and Hygromycin
T2 sequence (P47871 26-477): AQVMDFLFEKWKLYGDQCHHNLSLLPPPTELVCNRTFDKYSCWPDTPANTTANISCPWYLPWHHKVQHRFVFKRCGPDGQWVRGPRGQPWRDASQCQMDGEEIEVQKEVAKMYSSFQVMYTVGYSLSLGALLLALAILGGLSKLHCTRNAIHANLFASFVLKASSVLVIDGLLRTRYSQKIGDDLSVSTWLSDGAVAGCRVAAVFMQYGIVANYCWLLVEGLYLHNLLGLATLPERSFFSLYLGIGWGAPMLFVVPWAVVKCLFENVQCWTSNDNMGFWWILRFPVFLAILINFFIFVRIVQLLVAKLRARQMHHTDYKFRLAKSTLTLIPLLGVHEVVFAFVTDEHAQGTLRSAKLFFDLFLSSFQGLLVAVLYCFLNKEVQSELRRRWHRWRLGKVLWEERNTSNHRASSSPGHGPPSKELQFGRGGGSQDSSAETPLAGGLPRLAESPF
Procedure, shortened: as §1

[3] = summary statement: EC50 at each of the glucagon and GLP-1 receptors, read-out: EC50 at the GLP-1 receptor
[4] = summary statement: EC50 at each of the glucagon and GLP-1 receptors, read-out: EC50 at the glucagon receptor
[5] = cells expressing human GCGR, cAMP production, buffer with or without 20% human serum (not stated which), read-out: GCGR EC50 human

Row | SMILES | EC50 [1, 3] [nM] | hGCGR/hGLP1R (hTone) [2] | EC50 [2, 4] [nM] | EC50 ([1]; cells expressing human GLP1R, cAMP production, buffer with or without 20% human serum (not stated which), read-out: GLP1R EC50 human) [nM] | EC50 [2, 5] [nM]
1 | CC(C)C[C@H](NC(=O)[C@H](Cc1ccc(O)cc1)NC(=O)[C@H](CCCCN)NC(=O)[C@H](CO)NC(=O)[C@H](Cc1ccc(O)cc1)NC(=O)[C@H](CC(=O)O)NC(=O)[C@H](CO)NC(=O)[C@@H](NC(=O)[C@H](Cc1ccccc1)NC(=O)[C@@H](NC(=O)CNC(=O)[C@H](CCC(N)=O)NC(=O)C(C)(C)NC(=O)[C@@H](N)Cc1c[nH]cn1)[C@@H](C)O)[C@@H](C)O)C(=O)N[C@@H](CC(=O)O)C(=O)N[C@@H](C)C(=O)N[C@@H](CCCNC(=N)N)C(=O)N[C@@H](C)C(=O)N[C@@H](C)C(=O)N[C@@H](CCCCNC(=O)COCCOCCNC(=O)COCCOCCNC(=O)CC[C@H](NC(=O)CCCCCCCCCCCCCCCCC(=O)O)C(=O)O)C(=O)N[C@@H](CC(=O)O)C(=O)N[C@@H](Cc1ccccc1)C(=O)N[C@H](C(=O)N[C@@H](CCC(N)=O)C(=O)N[C@@H](Cc1c[nH]c2ccccc12)C(=O)N[C@@H](CC(C)C)C(=O)N[C@@H](CCS(C)(=O)=O)C(=O)N[C@@](C)(CC(=O)O)C(=O)N[C@H](C(=O)O)[C@@H](C)O)C(C)C [TP735] (H-H[Aib]QGTFTSDYSKYLDARAAK([AEEA-AEEA-γGlu-C18 diacid])DFVQWL[Met(O2)][αMeD]T-OH; N-terminus assumed) | < 5 | 1.4 | < 5 |  | 
2 | CC(C)C[C@H](NC(=O)[C@H](Cc1ccc(O)cc1)NC(=O)[C@H](CCCCN)NC(=O)[C@H](CO)NC(=O)[C@H](Cc1ccc(O)cc1)NC(=O)[C@H](CC(=O)O)NC(=O)[C@H](CO)NC(=O)[C@@H](NC(=O)[C@H](Cc1ccccc1)NC(=O)[C@@H](NC(=O)CNC(=O)[C@H](CCC(N)=O)NC(=O)C(C)(C)NC(=O)[C@@H](N)Cc1c[nH]cn1)[C@@H](C)O)[C@@H](C)O)C(=O)N[C@@H](CC(=O)O)C(=O)N[C@@H](C)C(=O)N[C@@H](CCCNC(=N)N)C(=O)N[C@@H](C)C(=O)N[C@@H](C)C(=O)N[C@@H](CCCCNC(=O)COCCOCCNC(=O)COCCOCCNC(=O)CC[C@H](NC(=O)CCCCCCCCCCCCCCCCC(=O)O)C(=O)O)C(=O)N[C@@H](CC(=O)O)C(=O)N[C@@H](Cc1ccccc1)C(=O)N[C@H](C(=O)N[C@@H](CCC(N)=O)C(=O)N[C@@H](Cc1c[nH]c2ccccc12)C(=O)N[C@@H](CC(C)C)C(=O)N[C@@H](CCS(C)(=O)=O)C(=O)N[C@@H](CC(=O)O)C(=O)N[C@H](C(=O)O)[C@@H](C)O)C(C)C [TP736] (H-H[Aib]QGTFTSDYSKYLDARAAK([AEEA-AEEA-γGlu-C18 diacid])DFVQWL[Met(O2)]DT-OH) | < 5 | 2.8 | < 5 |  | 
3 | CC(C)C[C@H](NC(=O)[C@H](Cc1c[nH]c2ccccc12)NC(=O)[C@H](CCCCNC(=O)COCCOCCNC(=O)COCCOCCNC(=O)CC[C@H](NC(=O)CCCCCCCCCCCCCCCCC(=O)O)C(=O)O)NC(=O)[C@@H](NC(=O)[C@H](Cc1ccccc1)NC(=O)[C@H](CC(=O)O)NC(=O)[C@H](CCC(N)=O)NC(=O)[C@H](C)NC(=O)[C@H](C)NC(=O)[C@H](CCCNC(=N)N)NC(=O)C(C)(C)NC(=O)[C@H](CC(=O)O)NC(=O)[C@H](CC(C)C)NC(=O)[C@H](Cc1ccc(O)cc1)NC(=O)[C@H](CCCCN)NC(=O)[C@H](CO)NC(=O)[C@H](Cc1ccc(O)cc1)NC(=O)[C@H](CC(=O)O)NC(=O)[C@H](CO)NC(=O)[C@@H](NC(=O)[C@H](Cc1ccccc1)NC(=O)[C@@H](NC(=O)CNC(=O)[C@H](CCC(N)=O)NC(=O)C(C)(C)NC(=O)[C@@H](N)Cc1c[nH]cn1)[C@@H](C)O)[C@@H](C)O)C(C)C)C(=O)N[C@@H](CCS(C)(=O)=O)C(=O)N[C@@H](CC(=O)O)C(=O)N[C@H](C(=O)O)[C@@H](C)O [TP737] (H-H[Aib]QGTFTSDYSKYLD[Aib]RAAQDFVK([AEEA-AEEA-γGlu-C18 diacid])WL[Met(O2)]DT-OH; N-terminus assumed) | < 5 | 0.6 | < 5 |  | 
4 | CC(C)C[C@H](NC(=O)[C@H](Cc1c[nH]c2ccccc12)NC(=O)[C@H](CCCCNC(=O)COCCOCCNC(=O)COCCOCCNC(=O)CC[C@H](NC(=O)CCCCCCCCCCCCCCC(=O)O)C(=O)O)NC(=O)[C@@H](NC(=O)[C@H](Cc1ccccc1)NC(=O)[C@H](CC(=O)O)NC(=O)[C@H](CCC(N)=O)NC(=O)[C@H](C)NC(=O)[C@H](C)NC(=O)[C@H](CCCNC(=N)N)NC(=O)C(C)(C)NC(=O)[C@H](CC(=O)O)NC(=O)[C@H](CC(C)C)NC(=O)[C@H](Cc1ccc(O)cc1)NC(=O)[C@H](CCCCN)NC(=O)[C@H](CO)NC(=O)[C@H](Cc1ccc(O)cc1)NC(=O)[C@H](CC(=O)O)NC(=O)[C@H](CO)NC(=O)[C@@H](NC(=O)[C@H](Cc1ccccc1)NC(=O)[C@@H](NC(=O)CNC(=O)[C@H](CCC(N)=O)NC(=O)C(C)(C)NC(=O)[C@@H](N)Cc1c[nH]cn1)[C@@H](C)O)[C@@H](C)O)C(C)C)C(=O)N[C@@H](CCS(C)(=O)=O)C(=O)N[C@@H](CC(=O)O)C(=O)N[C@H](C(N)=O)[C@@H](C)O [TP811] (H-H[Aib]QGTFTSDYSKYLD[Aib]RAAQDFVK([AEEA-AEEA-γGlu-C16 diacid])WL[Met(O2)]DT-NH2; N-terminus assumed) | < 5 | 0.8 | < 5 | 0.26 | 0.21
5 | CC(C)C[C@H](NC(=O)[C@H](Cc1ccc(O)cc1)NC(=O)[C@H](CCCCN)NC(=O)[C@H](CO)NC(=O)[C@H](Cc1ccc(O)cc1)NC(=O)[C@H](CC(=O)O)NC(=O)[C@H](CO)NC(=O)[C@@H](NC(=O)[C@H](Cc1ccccc1)NC(=O)[C@@H](NC(=O)CNC(=O)[C@H](CCC(N)=O)NC(=O)C(C)(C)NC(=O)[C@@H](N)Cc1c[nH]cn1)[C@@H](C)O)[C@@H](C)O)C(=O)N[C@@H](CC(=O)O)C(=O)N[C@@H](C)C(=O)N[C@@H](CCCNC(=N)N)C(=O)N[C@@H](C)C(=O)N[C@@H](C)C(=O)N[C@@H](CCCCNC(=O)COCCOCCNC(=O)COCCOCCNC(=O)CC[C@H](NC(=O)CCCCCCCCCCCCCCC(=O)O)C(=O)O)C(=O)N[C@@H](CCC(=O)O)C(=O)N[C@@H](Cc1ccccc1)C(=O)N[C@H](C(=O)N[C@@H](CCC(N)=O)C(=O)N[C@@H](Cc1c[nH]c2ccccc12)C(=O)N[C@@H](CC(C)C)C(=O)N[C@@H](CCS(C)(=O)=O)C(=O)N[C@@H](CC(=O)O)C(=O)N[C@H](C(N)=O)[C@@H](C)O)C(C)C [TP812] (H-H[Aib]QGTFTSDYSKYLDARAAK([AEEA-AEEA-γGlu-C16 diacid])EFVQWL[Met(O2)]DT-NH2) | < 5 | 2.3 | < 5 |  | 0.2
6 | CC(C)C[C@H](NC(=O)[C@H](Cc1ccc(O)cc1)NC(=O)[C@H](CCCCN)NC(=O)[C@H](CO)NC(=O)[C@H](Cc1ccc(O)cc1)NC(=O)[C@H](CC(=O)O)NC(=O)[C@H](CO)NC(=O)[C@@H](NC(=O)[C@H](Cc1ccccc1)NC(=O)[C@@H](NC(=O)CNC(=O)[C@H](CCC(N)=O)NC(=O)C(C)(C)NC(=O)[C@@H](N)Cc1c[nH]cn1)[C@@H](C)O)[C@@H](C)O)C(=O)N[C@@H](CC(=O)O)C(=O)N[C@@H](C)C(=O)N[C@@H](CCCNC(=N)N)C(=O)N[C@@H](C)C(=O)N[C@@H](C)C(=O)N[C@@H](CCC(N)=O)C(=O)N[C@@H](CCC(=O)O)C(=O)N[C@@H](Cc1ccccc1)C(=O)N[C@H](C(=O)N[C@@H](CCCCNC(=O)COCCOCCNC(=O)COCCOCCNC(=O)CC[C@H](NC(=O)CCCCCCCCCCCCCCC(=O)O)C(=O)O)C(=O)N[C@@H](Cc1c[nH]c2ccccc12)C(=O)N[C@@H](CC(C)C)C(=O)N[C@@H](CCS(C)(=O)=O)C(=O)N[C@@H](CC(=O)O)C(=O)N[C@H](C(N)=O)[C@@H](C)O)C(C)C [TP813] (H-H[Aib]QGTFTSDYSKYLDARAAQEFVK([AEEA-AEEA-γGlu-C16 diacid])WL[Met(O2)]DT-NH2; N-terminus assumed) | < 5 | 1.6 | < 5 |  | 0.21
7 | CC(C)C[C@H](NC(=O)[C@H](Cc1ccc(O)cc1)NC(=O)[C@H](CCCCN)NC(=O)[C@H](CO)NC(=O)[C@H](Cc1ccc(O)cc1)NC(=O)[C@H](CC(=O)O)NC(=O)[C@H](CO)NC(=O)[C@@H](NC(=O)[C@H](Cc1ccccc1)NC(=O)[C@@H](NC(=O)CNC(=O)[C@H](CCC(N)=O)NC(=O)C(C)(C)NC(=O)[C@@H](N)Cc1c[nH]cn1)[C@@H](C)O)[C@@H](C)O)C(=O)N[C@@H](CC(=O)O)C(=O)N[C@@H](C)C(=O)N[C@@H](CCCNC(=N)N)C(=O)N[C@@H](C)C(=O)N[C@@H](C)C(=O)N[C@@H](CCCCNC(=O)COCCOCCNC(=O)COCCOCCNC(=O)CC[C@H](NC(=O)CCCCCCCCCCCCCCC(=O)O)C(=O)O)C(=O)N[C@@H](CC(=O)O)C(=O)N[C@@H](Cc1ccccc1)C(=O)N[C@H](C(=O)N[C@@H](CCC(N)=O)C(=O)N[C@@H](Cc1c[nH]c2ccccc12)C(=O)N[C@@H](CC(C)C)C(=O)N[C@@H](CCS(C)(=O)=O)C(=O)N[C@@H](CCC(=O)O)C(=O)N[C@H](C(N)=O)[C@@H](C)O)C(C)C [TP814] (H-H[Aib]QGTFTSDYSKYLDARAAK([AEEA-AEEA-γGlu-C16 diacid])DFVQWL[Met(O2)]ET-NH2; N-terminus assumed) | < 5 | 2.0 | < 5 |  | 
